The values that follow come from US6822097B1, “Compounds and methods of uses” (Amgen, Inc., priority 2002, dated 2004).

Structures are written as SMILES. Where only a bound is given, the exact number is not on record here.

Usually melting point stands for the temperature of the solid-liquid transition.

In turn, `Nc1c(-c2csc(-c3ccncc3)n2)c(=O)[nH]c2ccc(Cl)cc12` [Example 21, 3-[2-(4-Pyridyl)-4-thiazolyl]-4-amino-6-chloro-2(1H)-quinolinone] gave a melting point above 220 °C.

Compound `O=c1[nH]c2ccccc2cc1-c1nc(-c2cccc([N+](=O)[O-])c2)cs1` [Example 114, 3-[4-(3-Nitrophenyl)-1,3-thiazol-2-yl]hydroquinolin-2-one] gave a melting point above 300 °C.

Compound `O=c1[nH]c2ccccc2cc1-c1csc(-c2ccncc2)n1` [Example 1, 3-[2-(4-Pyridyl)-4-thiazolyl]-2(1H)-quinolinone] gave a melting point of 241 to 243 °C.

The compound `CN(c1nc(-c2cc3ccccc3[nH]c2=O)cs1)S(=O)(=O)c1cccc(F)c1` [Example 8731, 3-Fluoro-N-methyl-N-[4-(2-oxo-1,2-dihydro-quinolin-3-yl)-thiazol-2-yl]-benzenesulfonamide] displayed a melting point of 247 to 249 °C.

Take `CCN(CC)C(=O)c1cccc2[nH]c(=O)c(-c3csc(-c4ccncc4)n3)cc12` [Example 11, N,N-Diethyl-1,2-dihydro-2-oxo-3-[2-(4-pyridyl)-4-thiazolyl]-5-quinolinecarboxamide]: the melting point was 210 °C (dec.).

For the compound `CN1CCN(c2ccc3[nH]c(=O)c(-c4csc(-c5ccncc5)n4)c(N)c3c2)CC1` [Example 22, 3-[2-(4-Pyridyl)-4-thiazolyl]-4-amino-6-(4-methyl-1-piperazinyl)-2(1H)-quinolinone], the melting point is above 220 °C.

Consider `Cc1c(-c2csc(-c3ccncc3)n2)c(=O)[nH]c2ccccc12` [Example 3, 3-[2-(4-Pyridyl)-4-thiazolyl]-4-methyl-2(1H)-quinolinone], for which the melting point is above 250 °C.

`COC(=O)c1cccc2[nH]c(=O)c(-c3csc(-c4ccncc4)n3)cc12` [Example 8, 1,2-Dihydro-2-oxo-3-[2-(4-pyridyl)-4-thiazolyl]-5-quinolinecarboxylic acid methyl ester] registered a melting point above 250 °C.

In turn, `COC(=O)c1ccc2cc(-c3csc(N(C)S(=O)(=O)c4ccccc4)n3)c(=O)[nH]c2c1` [Example 8763] showed a melting point above 300 °C.
